One experiment concerns APMA human PDX tumors. As to the kind of experiment: APMA human PDX model, tumor volumes at end point (Extended Data Fig. 5g). The format is in vivo, mouse. The conditions noted are these: Extended Data 5G; second human PDX model after 3 cycles of treatment; individual animals. Here is the method: Subcutaneous PDX studies were performed by implanting early passage PDX pieces (~4 mm^3) or TKCC10 CCs (1.5 × 10^6 cells per mouse in 100 μl PBS/Matrigel 1:1) into female (PDX) or male (TKCC10) 8-week-old immunocompromised nude Balb/c-Fox1nuAusb mice subcutaneously on the left flank. For the duration of the study, mice were kept in conventional caging with environmental enrichment, access to standard chow, water ad libitum and 12-h light–dark cycle at ambient temperature and humidity. Treatment began when tumors reached 150 mm^3, where each mouse was randomized into a treatment group and administered gemcitabine HCl (100 mg kg^−1 in saline) (Jomar Life Research) or vehicle control (0.9% saline) by i.p. injection twice weekly on day 2 and 4 of the treatment cycle until an ethical end point was reached. These included maximal tumor mass ≥10% of body weight, weight loss ≥20% from maximum body weight or tumor interfering with mobility and affecting access to food and water. Animals with non-tumor-related complications that led to a premature end point were censored. PXS-5505 (20 mg kg^−1 in saline) or vehicle (0.9% saline) was administered daily by i.p. injection. Tumor size was monitored every second day by calipers. Tumor volume was calculated using the formula (length × width^2)/2. At day 39, mice were killed via CO2 and cervical dislocation and tumors were collected and processed. […]

The subject of experiment [1] is lysyl oxidase family members in KPC CCs. Description: qRT-PCR of lysyl oxidase family members after treatment (Extended Data Figs. 2d, 3h).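 As to qRT-PCR LOX ΔCt: 30 µM PXS-5505.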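 As to qRT-PCR LOXL2 ΔCt: 30 µM PXS-5505.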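 As to qRT-PCR LOXL3 ΔCt: 30 µM PXS-5505.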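 As to qRT-PCR LOXL4 ΔCt: 30 µM PXS-5505.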 The format is cell-based, mouse. Details: qRT-PCR LOX (Ct) / qRT-PCR LOX ΔCt / qRT-PCR LOX ΔΔCt KPC CC / qRT-PCR LOXL1 ΔCt / qRT-PCR LOXL1 ΔΔCt KPC CC / qRT-PCR LOXL2 ΔCt / qRT-PCR LOXL2 ΔΔCt KPC CC / qRT-PCR LOXL3 ΔCt / qRT-PCR LOXL3 ΔΔCt KPC CC / qRT-PCR LOXL4 ΔCt / qRT-PCR LOXL4 ΔΔCt KPC CC: dose or concentration left out as unconfirmed. How it is done:
A total of 5 × 10^5 KPC CCs or CAFs were seeded and collected after incubation in 21% O2/5% CO2 for 72 h. RNA was isolated using the RNeasy mini kit (QIAGEN) according to the manufacturer’s instructions. Then, 1 μg of RNA was reverse transcribed using the Transcriptor First Strand cDNA Synthesis kit (Roche LifeScience) with anchored-oligo(dT)18 primers or the QuantiTect Reverse Transcription kit (QIAGEN). Real-time PCR was performed using the Roche LightCycler480 (Roche LifeScience) or QuantStudio 7 (Thermo Fisher). The following probe sets from Applied Biosystems, were used: LOX, Mm00495386; LOXL1, Mm01145738; LOXL2, Mm00804740; LOXL3, Mm01184867; LOXL4, Mm00446385; and GAPDH, Mm99999915. Primers and Roche Universal Probe Library probes used for RT–qPCR are described in Supplementary Table 4. Relative mRNA expression levels for each transcript of interest were normalized to GAPDH or ACTB (as indicated) and quantified using the comparative double ΔCt method (unless stated otherwise) for each biological replicate.
Extended Data Fig. 2 Characterization of cells derived from the KPC autochthonous model. a. Immunofluorescence staining of KPC CCs and KPC CAFs for the pancreatic epithelial cell marker CDH1 (green), DAPI (blue) and for the CAF marker α-SMA (yellow), DAPI (blue). Representative images from n = 3 biological independent samples. Scale bar = 30 μm. b. RNAseq reads for CAF and epithelial cell makers in KPC CAFs n = 3 biological independent samples. […] Data is presented as mean values ± SEM. […] Data presented as mean values +/− SD. […] Source data
Data presented as mean values +/− SD. f. […] Data presented as mean values +/− SD. […] Data presented as mean values +/− SD. […] Data presented as mean values +/− SD. Ordinary one-way ANOVA for multiple comparison test performed. Source data
For orientation: Quantitative PCR measures a nucleic acid by following its amplification.

The mark [2] stands for this setting: KPC CCs, 50 nM gemcitabine, 48 hours, per replicate.
Where [3] appears, read: KPC CCs, 50 nM gemcitabine, 48 hours, vs GAPDH, per replicate.
[4] abbreviates: KPC CC, 48 hour treatment, 30 M PXS-5505, replicates.
Where [5] appears, read: KPC CC, 48 hour treatment, PXS-5505, replicates.
Setting [6] is: KPC CC, 48 hour treatment, PXS-5505, vs GAPDH, replicates.

Each structure is given as a SMILES string. Several values for one entry are separate records, joined by “and”; a condition that tells them apart may be missing. Identical values can stand only once.

These results are taken from PMC10518255, “A first-in-class pan-lysyl oxidase inhibitor impairs stromal remodeling and enhances gemcitabine response and survival in pancreatic cancer” (Nature Cancer, 2023).

Take `Nc1ccn([C@@H]2O[C@H](CO)[C@@H](O)C2(F)F)c(=O)n1` [Gem, gemcitabine]: the “Tumour volumes at endpoint” value with APMA human PDX tumors was 145.448 mm3 and 9.626 mm3 and 12.4718 mm3 and 45.315 mm3 and 3.952 mm3 and 50.8335 mm3 and 16.8359 mm3 and 29.7673 mm3 and 51.7185 mm3 and 16.7442 mm3. Besides, in experiment [1] (setting [2]), the “LOX ΔΔCt CC” value was 0.5966 and 0.4518 and 0.8445; the “LOXL1 ΔΔCt CC” value was 2.011 and 0.7673 and 0.4707; the “LOXL2 ΔΔCt CC” value was 1.535 and 1.563 and 1.2; the “LOXL3 ΔΔCt CC” value was 1.643 and 1.594 and 1.375. Also, the “LOXL4 ΔΔCt CC” value in experiment [1] (setting [2]) was 0.7511 and 0.9095 and 0.7486. For the same molecule, in experiment [1] (setting [3]), the “LOX ΔCt” value is 14.7188 and 15.1199 and 14.2176; the “LOXL1 ΔCt” value was 12.5081 and 13.8984 and 14.6034; the “LOXL2 ΔCt” value was 4.459 and 4.433 and 4.815; the “LOXL3 ΔCt” value is 5.8941 and 5.937 and 6.151. The “LOXL4 ΔCt” value in experiment [1] (setting [3]) is 8.9744 and 8.6983 and 8.979. Besides, the “expression of lysyl oxidase family members” value in experiment [1] (KPC cancer cells, 50 nM gemcitabine for 48 hours) is reported as “not observed”.

As to `Cl.Cl.NC/C=C(\F)CS(=O)(=O)c1cccc2cccnc12.O` [PXS-5505, (Z)-3-fluoro-4-(quinolin-8-ylsulfonyl)but-2-en-1-amine dihydrochloride monohydrate], in the experiment with APMA human PDX tumors, the “Tumour volumes at endpoint” value is 111.838 mm3 and 144.188 mm3 and 186.048 mm3 and 277.687 mm3 and 285.67 mm3 and 63.9218 mm3 and 265.041 mm3 and 180.58 mm3 and 65.1463 mm3. Also, in experiment [1] (setting [4]), the “qRT-PCR LOXL1 (Ct)” value was 32.0868 and 30.4856 and 33.7318; the “qRT-PCR LOXL2 (Ct)” value was 25.1478 and 23.1006 and 27.5044; the “qRT-PCR LOXL3 (Ct)” value was 25.6118 and 24.0525 and 29.0502; the “qRT-PCR LOXL4 (Ct)” value was 26.1005 and 25.1765 and 30.4751. For the same molecule, in experiment [1] (setting [5]), the “qRT-PCR LOX (Ct)” value is 32.5405 and 35.0722 and 35.237; the “qRT-PCR LOX ΔΔCt KPC CC” value was 3.619 and 0.48 and 10.8682; the “qRT-PCR LOXL1 ΔΔCt KPC CC” value was 0.8362 and 0.4014 and 1.074; the “qRT-PCR LOXL2 ΔΔCt KPC CC” value is 0.7412 and 0.4847 and 0.5812. The “qRT-PCR LOXL3 ΔΔCt KPC CC” value in experiment [1] (setting [5]) was 2.035 and 0.9488 and 0.7538. Also, in experiment [1] (setting [6]), the “qRT-PCR LOX ΔCt” value is 15.5819 and 18.4964 and 13.9954; the “qRT-PCR LOXL1 ΔCt” value is 12.8511 and 13.9099 and 12.4902; the “qRT-PCR LOXL2 ΔCt” value was 5.9121 and 6.525 and 6.263; the “qRT-PCR LOXL3 ΔCt” value was 6.376 and 7.477 and 7.8086. Besides, the “qRT-PCR LOXL4 ΔΔCt KPC CC” value in experiment [1] (KPC CC, 48 hour treatment, replicates) is 3.255 and 0.9772 and 0.6302. For the same molecule, the “qRT-PCR LOXL4 ΔCt” value in experiment [1] (KPC CC, 48 hour treatment, vs GAPDH, replicates) was 6.8648 and 8.601 and 9.233. Also, the “transcription of lysyl oxidase family members” value in experiment [1] (KPC CCs, PXS-5505 up to 300 µM) was “does not significantly alter transcription”.
